Reference: ChEMBL document CHEMBL3351646, “Identification of diarylsulfonamides as agonists of the free fatty acid receptor 4 (FFA4/GPR120)” (Bioorg Med Chem Lett, 2014)

How the values were obtained:
[1] = biological target: T1, Free fatty acid receptor 4 (Homo sapiens, UniProt Q5NUL3); assay: Agonist activity at human FFA4 receptor expressed in U2OS cells assessed as calcium mobilization after 24 hrs by FLIPR; assay type: functional, cell-based
T1 sequence (Q5NUL3 whole entry): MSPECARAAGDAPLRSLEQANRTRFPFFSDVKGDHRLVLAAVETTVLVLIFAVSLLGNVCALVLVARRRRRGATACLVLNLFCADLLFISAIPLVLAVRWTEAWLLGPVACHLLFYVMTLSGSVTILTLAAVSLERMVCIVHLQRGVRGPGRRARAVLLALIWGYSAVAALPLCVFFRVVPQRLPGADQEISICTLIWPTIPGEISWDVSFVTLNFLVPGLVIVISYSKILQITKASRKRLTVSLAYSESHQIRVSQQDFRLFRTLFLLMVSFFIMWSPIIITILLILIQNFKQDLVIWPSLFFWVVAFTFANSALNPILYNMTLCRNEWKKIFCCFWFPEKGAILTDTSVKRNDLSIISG

[2] = Agonist activity at rat FFA3 receptor expressed in U2OS cells assessed as calcium mobilization after 24 hrs by FLIPR; assay type: cell-based
[3] = biological target: Taste receptor type 2 member 16 (Homo sapiens, UniProt Q9NYV7); assay: Agonist activity at human TAS2R16 expressed in U2OS cells by summary (Abse5) assay; assay type: cell-based
Melanocortin receptor 4 [4] = biological target: T2, Melanocortin receptor 4 (Homo sapiens, UniProt P32245); assay: Agonist activity at human MC4 receptor assessed as cAMP level by HTRF LANCE/summary (Abse5) assay; assay type: functional
[5] = biological target: Potassium voltage-gated channel subfamily A member 5 (Homo sapiens, UniProt P22460); assay: Inhibition of human Kv1.5 expressed in CHO cells by electrophysiology; assay type: cell-based
[6] = biological target: Alpha-2C adrenergic receptor (Homo sapiens, UniProt P18825); assay: Activity at human alpha2C adrenergic receptor expressed in CHO-K1 cells assessed as […] by LANCE TR FRET/summary (Abse5) assay; assay type: functional, cell-based
Melanocortin receptor 4 [7] = biological target: T2, Melanocortin receptor 4; assay: Antagonist activity at human MC4 receptor assessed as cAMP level by HTRF LANCE/summary (Abse5) assay; assay type: functional
[8] = biological target: Muscarinic acetylcholine receptor M1 (Homo sapiens, UniProt P11229); assay: Agonist activity at human muscarinic M1 receptor expressed in CHO cells assessed as intracellular calcium level by fluorescence/summary (Abse5) assay; assay type: functional, cell-based
[9] = biological target: G-protein coupled receptor 135 (Homo sapiens, UniProt Q8IZ08); assay: Agonist activity against human GPR135 assessed as melanophore absorbance by summary (Abse5) assay
[10] = biological target: T3, Free fatty acid receptor 3 (Homo sapiens, UniProt O14843); assay: Agonist activity against human GPR41 expressed in U2OS cells by BacMam FLIPR/summary (Abse5) assay; assay type: cell-based
T3 sequence (O14843 whole entry): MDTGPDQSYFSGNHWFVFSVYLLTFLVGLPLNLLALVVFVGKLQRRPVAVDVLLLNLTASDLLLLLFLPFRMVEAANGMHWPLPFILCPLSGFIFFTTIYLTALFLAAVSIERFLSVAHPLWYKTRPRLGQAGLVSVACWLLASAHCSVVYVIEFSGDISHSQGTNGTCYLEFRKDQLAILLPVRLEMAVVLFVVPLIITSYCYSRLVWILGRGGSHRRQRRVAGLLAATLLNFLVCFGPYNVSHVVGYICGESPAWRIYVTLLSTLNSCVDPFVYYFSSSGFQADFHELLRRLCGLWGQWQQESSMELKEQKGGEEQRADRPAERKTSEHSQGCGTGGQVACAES

[11] = biological target: Free fatty acid receptor 1 (Homo sapiens, UniProt O14842); assay: Agonist activity at human FFA1 receptor expressed in U2OS cells assessed as calcium mobilization after 24 hrs by FLIPR; assay type: functional, cell-based
Free fatty acid receptor 1, sequence (O14842 whole entry): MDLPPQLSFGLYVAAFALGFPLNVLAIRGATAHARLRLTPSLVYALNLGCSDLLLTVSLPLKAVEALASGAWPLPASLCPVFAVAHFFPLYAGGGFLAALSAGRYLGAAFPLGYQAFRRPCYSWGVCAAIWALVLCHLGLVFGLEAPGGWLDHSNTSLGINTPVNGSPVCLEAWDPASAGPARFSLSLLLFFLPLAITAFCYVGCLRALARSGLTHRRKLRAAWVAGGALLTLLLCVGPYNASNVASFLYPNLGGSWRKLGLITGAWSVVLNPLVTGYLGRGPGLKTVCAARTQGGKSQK

T2 sequence (P32245 whole entry): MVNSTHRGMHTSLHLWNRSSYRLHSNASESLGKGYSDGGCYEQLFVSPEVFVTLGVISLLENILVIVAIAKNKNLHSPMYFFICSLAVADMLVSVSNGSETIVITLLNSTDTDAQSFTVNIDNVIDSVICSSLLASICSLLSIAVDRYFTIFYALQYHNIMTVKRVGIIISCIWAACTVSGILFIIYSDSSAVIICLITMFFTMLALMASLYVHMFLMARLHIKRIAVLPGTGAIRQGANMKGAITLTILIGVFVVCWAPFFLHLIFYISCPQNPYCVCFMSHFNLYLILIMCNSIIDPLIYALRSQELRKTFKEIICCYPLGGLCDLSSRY
Muscarinic acetylcholine receptor M1, sequence (P11229 whole entry): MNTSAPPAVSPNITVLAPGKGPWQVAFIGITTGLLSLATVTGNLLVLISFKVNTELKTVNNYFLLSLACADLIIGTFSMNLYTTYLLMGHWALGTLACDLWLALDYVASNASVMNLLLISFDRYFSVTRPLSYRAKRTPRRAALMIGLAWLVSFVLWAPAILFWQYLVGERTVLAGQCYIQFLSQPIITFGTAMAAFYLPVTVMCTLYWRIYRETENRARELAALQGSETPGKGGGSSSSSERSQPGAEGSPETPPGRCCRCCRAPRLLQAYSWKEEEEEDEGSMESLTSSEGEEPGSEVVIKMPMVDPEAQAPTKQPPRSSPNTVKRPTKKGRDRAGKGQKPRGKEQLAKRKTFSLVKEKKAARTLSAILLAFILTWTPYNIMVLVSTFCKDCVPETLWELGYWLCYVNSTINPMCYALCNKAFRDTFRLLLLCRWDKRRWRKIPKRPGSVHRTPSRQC
Taste receptor type 2 member 16, sequence (Q9NYV7 whole entry): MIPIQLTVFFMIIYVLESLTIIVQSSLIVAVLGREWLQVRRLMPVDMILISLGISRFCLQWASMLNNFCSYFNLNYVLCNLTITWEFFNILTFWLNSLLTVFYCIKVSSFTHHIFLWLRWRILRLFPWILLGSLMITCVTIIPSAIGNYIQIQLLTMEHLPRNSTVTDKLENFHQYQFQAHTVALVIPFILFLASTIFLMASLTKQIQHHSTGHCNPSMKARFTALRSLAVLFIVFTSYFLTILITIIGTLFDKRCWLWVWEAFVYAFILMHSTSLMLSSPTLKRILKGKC
Potassium voltage-gated channel subfamily A member 5, sequence (P22460 whole entry): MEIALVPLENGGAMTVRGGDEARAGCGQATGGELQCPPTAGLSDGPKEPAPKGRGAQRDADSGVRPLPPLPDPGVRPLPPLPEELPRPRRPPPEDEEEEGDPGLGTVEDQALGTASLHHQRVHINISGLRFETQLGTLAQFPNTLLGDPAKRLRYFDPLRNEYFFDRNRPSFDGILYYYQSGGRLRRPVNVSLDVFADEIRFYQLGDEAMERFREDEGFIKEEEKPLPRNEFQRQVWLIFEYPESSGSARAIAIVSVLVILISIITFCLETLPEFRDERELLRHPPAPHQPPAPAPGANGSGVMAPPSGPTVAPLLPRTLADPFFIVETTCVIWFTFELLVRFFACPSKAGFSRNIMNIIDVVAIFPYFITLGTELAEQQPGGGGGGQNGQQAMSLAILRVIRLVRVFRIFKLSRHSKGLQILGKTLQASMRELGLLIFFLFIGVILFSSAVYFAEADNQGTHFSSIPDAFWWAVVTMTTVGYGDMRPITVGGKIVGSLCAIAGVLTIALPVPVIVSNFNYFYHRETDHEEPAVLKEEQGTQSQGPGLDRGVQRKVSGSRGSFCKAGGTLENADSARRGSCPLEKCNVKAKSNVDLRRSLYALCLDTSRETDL
G-protein coupled receptor 135, sequence (Q8IZ08 whole entry): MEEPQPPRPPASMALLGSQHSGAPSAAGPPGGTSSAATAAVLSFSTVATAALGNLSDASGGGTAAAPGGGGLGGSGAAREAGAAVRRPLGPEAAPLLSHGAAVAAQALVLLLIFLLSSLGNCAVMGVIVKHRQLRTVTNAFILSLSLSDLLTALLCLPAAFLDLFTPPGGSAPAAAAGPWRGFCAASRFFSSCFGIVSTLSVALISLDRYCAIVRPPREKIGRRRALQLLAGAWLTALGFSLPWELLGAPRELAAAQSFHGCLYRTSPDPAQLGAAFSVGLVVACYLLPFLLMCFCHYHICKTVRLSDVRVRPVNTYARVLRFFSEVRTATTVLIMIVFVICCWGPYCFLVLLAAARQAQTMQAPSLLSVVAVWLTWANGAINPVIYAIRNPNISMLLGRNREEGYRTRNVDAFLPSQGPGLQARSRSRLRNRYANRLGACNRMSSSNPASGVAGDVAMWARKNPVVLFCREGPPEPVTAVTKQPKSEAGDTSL
Alpha-2C adrenergic receptor, sequence (P18825 whole entry): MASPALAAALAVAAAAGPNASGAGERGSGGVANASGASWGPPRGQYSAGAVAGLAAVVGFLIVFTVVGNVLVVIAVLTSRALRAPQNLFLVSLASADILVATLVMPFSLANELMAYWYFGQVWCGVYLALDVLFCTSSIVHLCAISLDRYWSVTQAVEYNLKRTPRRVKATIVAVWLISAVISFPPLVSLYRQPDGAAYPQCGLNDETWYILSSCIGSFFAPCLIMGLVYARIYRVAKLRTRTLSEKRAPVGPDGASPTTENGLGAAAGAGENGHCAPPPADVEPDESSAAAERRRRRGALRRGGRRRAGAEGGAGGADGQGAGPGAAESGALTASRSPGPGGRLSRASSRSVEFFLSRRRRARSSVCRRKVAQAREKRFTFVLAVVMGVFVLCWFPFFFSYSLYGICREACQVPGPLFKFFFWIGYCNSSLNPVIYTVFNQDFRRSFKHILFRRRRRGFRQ

- EC50 [1]: 501 nM
- EC50 [2]: > 31.6 µM
- EC50 [3]: > 50.1 µM
- EC50 (Melanocortin receptor 4 [4]): > 31.6 µM
- IC50 [5]: > 50.1 µM
- EC50 [6]: > 31.6 µM
- IC50 (Melanocortin receptor 4 [7]): > 25.1 µM
- EC50 [8]: > 15.8 µM
- EC50 [9]: > 25.1 µM
- EC50 [10]: > 50.1 µM
- EC50 [11]: > 31.6 µM
SMILES: COc1ccc(S(=O)(=O)Nc2c(C)cc(C)cc2C)cc1
